Results from patent US20160318957A1, “CRYSTAL (1) OF PYRAZINO[2,1-c][1,2,4]TRIAZINE COMPOUND” (PRISM PHARMA CO., LTD., priority 2013, published 2016).

Key:
Type in all cases: physicochemical
[1] = Heating of crystal in an oven; settings: oven at 50° C. overnight
Description: First, an amorphous form of compound 1 is explained. Compound 1 can be produced by synthesize according to the method described in patent document 1.

[2] = Evaluation of solid stability (impurity content by HPLC after preservation); settings: for impurity content (%): HPLC 226 nm
Experimental: The solid obtained in Example 1 or Comparative Example 1 was preserved for 3 months under the following 3 kinds of preservation conditions. The absorbance at wavelength 226 nm was measured by high performance liquid chromatography (HPLC), and the content of impurity contained in the crystal was measured every other month.
From the peak area of the obtained chromatogram, a value obtained by dividing the total area of respective peaks other than the peak showing compound 1, by the total area of all the obtained peaks, from the peaks contained in the above-mentioned solid, was taken as impurity content (%), and is shown in Table 5.

[3] = Hygroscopicity evaluation by dynamic water adsorption measuring apparatus; settings: 25° C., relative humidity range of 35-75% RH
Experimental: The hygroscopicity of crystal A obtained in Example 1 was evaluated by a dynamic water adsorption measuring apparatus. A sample mounting part of the apparatus was maintained at 25° C., and the relative humidity (RH) was set stepwisely within the range of 5-95% RH. The humidity was controlled by changing the relative flow of 0% RH dry nitrogen and 100% RH humidified nitrogen. The sample weight was confirmed at for 2 min intervals by a micro balance, and the humidity was sequentially changed at the time point when the weight shift range for 5 min was below 0.01%.

[4] = Evaluation of thermal stability by X-ray-DSC
Experimental: Using X-ray diffraction-differential scanning simultaneous calorimetry apparatus (X-ray-DSC), whether the crystal form of crystal A obtained in Example 1 changes upon heating was observed.
When the temperature was around 90° C., the weight of crystal A decreased, and the powder X-ray diffraction pattern changed clearly.

[5] = preserved at 40° C./75% RH, 1 month later
[6] = preserved at 40° C./75% RH, 2 months later
[7] = preserved at 40° C./75% RH, 3 months later
[8] = preserved at 60° C., 1 month later
[9] = preserved at 60° C., 2 months later
[10] = preserved at 60° C., 3 months later
[11] = preserved at −20° C., 1 month later
[12] = preserved at −20° C., 2 months later
[13] = preserved at −20° C., 3 months later
[14] = heated from 40° C. to 100° C. at 1° C./min

## C[C@H]1C2N(C(=O)CN(C)N2C(=O)NCc2ccccc2)[C@@H](Cc2ccc(OP(=O)(O)O)cc2)C(=O)N1Cc1cccc2cccnc12 (stereo partly drawn) [Example 2, 4-(((6S,9S)-1-(benzylcarbamoyl)-2,9-dimethyl-4,7-dioxo-8-(quinolin-8-ylmethyl)octahydro-1H-pyrazino[2,1-c][1,2,4]triazin-6-yl)methyl)phenyl dihydrogen phosphate]
[1]
  change of solid form on heating: changes into an amorphous form

## C[C@H]1C2N(C(=O)CN(C)N2C(=O)NCc2ccccc2)[C@@H](Cc2ccc(OP(=O)(O)O)cc2)C(=O)N1Cc1cccc2cccnc12 (stereo partly drawn) [Comparative Example 1, 4-(((6S,9S)-1-(benzylcarbamoyl)-2,9-dimethyl-4,7-dioxo-8-(quinolin-8-ylmethyl)octahydro-1H-pyrazino[2,1-c][1,2,4]triazin-6-yl)methyl)phenyl dihydrogen phosphate]
[2]; 40° C., 75% RH, 3 months later
  increase in the impurity content as compared to preservation at −20° C.: about 4%
[2]; 60° C., 3 months later
  increase in the impurity content as compared to preservation at −20° C.: not less than 1.1%
[2]; [5]
  impurity content (%): 3.35%
[2]; [6]
  impurity content (%): 4.62%
[2]; [7]
  impurity content (%): 6.51%
[2]; [8]
  impurity content (%): 3.10%
[2]; [9]
  impurity content (%): 3.41%
[2]; [10]
  impurity content (%): 3.68%
[2]; [11]
  impurity content (%): 2.46%
[2]; [12]
  impurity content (%): 2.60%
[2]; [13]
  impurity content (%): 2.57%

## C[C@H]1C2N(C(=O)CN(C)N2C(=O)NCc2ccccc2)[C@@H](Cc2ccc(OP(=O)(O)O)cc2)C(=O)N1Cc1cccc2cccnc12 (stereo partly drawn) [Example 1, 4-(((6S,9S)-1-(benzylcarbamoyl)-2,9-dimethyl-4,7-dioxo-8-(quinolin-8-ylmethyl)octahydro-1H-pyrazino[2,1-c][1,2,4]triazin-6-yl)methyl)phenyl dihydrogen phosphate]
[3]
  hygroscopicity: low hygroscopicity
  weight change at the maximum: about 2.5%
[4]; 43° C.-48° C., heated at 1° C./min
  powder X-ray diffraction pattern at the endothermic peak (desorption of hydrated water): did not change
[4]; [14]
  temperature at which weight decreased and powder X-ray diffraction pattern changed clearly: around 90 °C
  thermal stability: thermally stable
[2]; 40° C., 75% RH, 3 months later
  increase in the impurity content as compared to preservation at −20° C.: about 1.6%
[2]; 60° C., 3 months later
  increase in the impurity content as compared to preservation at −20° C.: not more than 0.5%
[2]; high temperature conditions and high humidity conditions, 3 months
  solid stability compared with amorphous form: more stable than the amorphous form of Comparative Example 1
[2]; [5]
  impurity content (%): 0.65%
[2]; [6]
  impurity content (%): 1.02%
[2]; [7]
  impurity content (%): 1.80%
[2]; [8]
  impurity content (%): 0.53%
[2]; [9]
  impurity content (%): 0.59%
[2]; [10]
  impurity content (%): 0.72%
[2]; [11]
  impurity content (%): 0.24%
[2]; [12]
  impurity content (%): 0.17%
[2]; [13]
  impurity content (%): 0.24%
